Test results published in patent US11814367B2, “Inhibitors of glycogen synthase 1 (GYS1) and methods of use thereof” (Maze Therapeutics, Inc., priority 2021, dated 2023).

Experiments:
[1] = target: hGYS1 enzyme (recombinant hGYS1/GN1 protein) (Homo sapiens (Human), UniProt P13807); experiment: GYS1 coupled enzyme assay (PK/LDH); type: biochemical; settings: hGYS1/GN1 50 nM, UDP-Glucose 0.8 mM, G6P 1 mM; geometric mean of at least 2 runs
[2] = system: hGYS1 enzyme / glycogen synthesis in HeLa cells; experiment: GYS1 cell based assay (glycogen synthesis, Glucose-glo); design: species or system human; settings: Homo sapiens, HeLa, 24 h, 24 h incubation, 20 mM glucose, geometric mean of at least 2 runs
Outline: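 HeLa cells starved 24 h in medium containing only 1× Glutamax were plated onto compound in medium with 20 mM glucose (1% DMSO final) for 24 h, 37 °C, 5% CO2. Acid lysates were Tris-quenched, glucoamylase-digested (pH 5.3, 1 h, 37 °C) and read by Glucose-glo luminescence. IC50 came from Hill fits, as geometric mean of ≥2 runs.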

[3] = target: hGYS2 enzyme (recombinant hGYS2/GN1 protein) (Homo sapiens (Human), UniProt P54840); experiment: GYS2 coupled enzyme assay (PK/LDH); type: biochemical; settings: geometric mean of at least 2 assay runs on separate days, read-out: Avg_IC50
Chain of hGYS2 enzyme (recombinant hGYS2/GN1 protein) (P54840 whole entry): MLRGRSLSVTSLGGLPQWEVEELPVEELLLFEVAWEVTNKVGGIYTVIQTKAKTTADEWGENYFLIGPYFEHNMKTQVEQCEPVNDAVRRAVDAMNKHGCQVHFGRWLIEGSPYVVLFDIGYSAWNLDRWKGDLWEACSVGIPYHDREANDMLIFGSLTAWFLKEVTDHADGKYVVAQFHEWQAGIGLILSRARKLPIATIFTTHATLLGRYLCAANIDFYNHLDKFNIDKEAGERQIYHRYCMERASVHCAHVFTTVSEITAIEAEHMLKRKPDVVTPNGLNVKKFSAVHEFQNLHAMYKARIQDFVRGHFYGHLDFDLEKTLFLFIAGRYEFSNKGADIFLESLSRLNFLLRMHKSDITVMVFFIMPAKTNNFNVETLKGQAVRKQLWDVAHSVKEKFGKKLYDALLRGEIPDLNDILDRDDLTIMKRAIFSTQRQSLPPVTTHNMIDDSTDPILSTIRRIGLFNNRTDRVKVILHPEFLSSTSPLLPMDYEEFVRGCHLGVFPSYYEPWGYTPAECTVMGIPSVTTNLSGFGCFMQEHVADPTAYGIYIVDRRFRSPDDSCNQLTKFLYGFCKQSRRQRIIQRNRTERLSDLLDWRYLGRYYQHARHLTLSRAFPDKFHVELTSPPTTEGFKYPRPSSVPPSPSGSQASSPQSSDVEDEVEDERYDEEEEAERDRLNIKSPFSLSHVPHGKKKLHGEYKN
Chain of hGYS2 enzyme (recombinant hGYS2/GN1 protein) (P46976 whole entry partner): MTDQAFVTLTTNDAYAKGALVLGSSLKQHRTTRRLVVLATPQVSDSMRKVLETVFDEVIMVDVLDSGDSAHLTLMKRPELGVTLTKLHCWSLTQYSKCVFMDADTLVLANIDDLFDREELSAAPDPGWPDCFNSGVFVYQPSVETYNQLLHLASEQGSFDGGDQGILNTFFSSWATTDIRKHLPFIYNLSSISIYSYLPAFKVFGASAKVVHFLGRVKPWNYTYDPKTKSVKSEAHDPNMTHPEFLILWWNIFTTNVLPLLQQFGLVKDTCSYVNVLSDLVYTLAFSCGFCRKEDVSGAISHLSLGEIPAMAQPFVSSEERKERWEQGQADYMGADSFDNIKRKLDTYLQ
Outline: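 Read-out: NADH loss at 340 nm, read each minute for 10 min, slope normalized to controls, duplicate % inhibition fit to Hill (0–100). Enzyme: 200 nM hGYS2/GN1; substrate 2 mM UDP-glucose plus 0.2% glycogen and 2 mM G6P; pH 7.5 Tris, 2.5% DMSO.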

Chain of hGYS1 enzyme (recombinant hGYS1/GN1 protein) (P13807 whole entry): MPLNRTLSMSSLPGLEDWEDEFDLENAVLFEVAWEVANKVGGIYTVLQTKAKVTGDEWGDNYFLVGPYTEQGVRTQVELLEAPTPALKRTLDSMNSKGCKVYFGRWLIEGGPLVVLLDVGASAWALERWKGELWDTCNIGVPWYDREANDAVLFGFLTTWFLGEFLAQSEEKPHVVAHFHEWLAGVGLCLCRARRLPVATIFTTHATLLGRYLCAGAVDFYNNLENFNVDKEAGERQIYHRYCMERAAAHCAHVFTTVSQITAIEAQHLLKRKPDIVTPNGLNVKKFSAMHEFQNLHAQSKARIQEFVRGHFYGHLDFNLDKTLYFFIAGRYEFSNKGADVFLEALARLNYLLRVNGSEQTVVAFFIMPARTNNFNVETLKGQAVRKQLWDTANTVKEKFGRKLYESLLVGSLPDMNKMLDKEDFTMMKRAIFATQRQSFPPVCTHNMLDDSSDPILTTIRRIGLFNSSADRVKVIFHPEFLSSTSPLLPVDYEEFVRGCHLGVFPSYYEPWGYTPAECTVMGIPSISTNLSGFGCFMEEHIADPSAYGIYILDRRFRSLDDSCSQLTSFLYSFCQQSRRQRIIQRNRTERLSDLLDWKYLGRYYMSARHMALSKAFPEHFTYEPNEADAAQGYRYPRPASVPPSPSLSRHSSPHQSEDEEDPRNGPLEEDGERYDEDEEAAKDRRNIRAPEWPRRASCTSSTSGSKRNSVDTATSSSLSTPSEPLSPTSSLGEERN
Chain of hGYS1 enzyme (recombinant hGYS1/GN1 protein) (P46976 whole entry partner): as the sequence (P46976 whole entry partner) above

Structure (SMILES)	IC50 [1]	IC50 [2]	IC50 [3]
Cc1cn(CC(=O)N2C[C@H](F)C[C@H]2C(=O)N[C@@H](c2ccccc2)c2ccc(C3CC(F)(F)C3)cn2)c(=O)[nH]c1=O [Compound 535, (2S,4R)-N-[(S)-[5-(3,3-difluorocyclobutyl)pyridin-2-yl](phenyl)methyl]-4-fluoro-1-[2-(5-methyl-2,4-dioxo-1,2,3,4-tetrahydropyrimidin-1-yl)acetyl] pyrrolidine-2-carboxamide]	12 nM	1220 nM	> 100000 nM
Cc1cnc(CC(=O)N2C[C@H](F)C[C@H]2C(=O)N[C@@H](c2ccccc2)c2ccc(C3CC(F)(F)C3)cn2)o1 [Compound 536, (2S,4R)-N-[(S)-[5-(3,3-difluorocyclobutyl)pyridin-2-yl](phenyl)methyl]-4-fluoro-1-[2-(5-methyl-1,3-oxazol-2-yl)acetyl]pyrrolidine-2-carboxamide]	24 nM	350 nM	> 100000 nM
O=C(N[C@@H](c1ccccc1)c1ccc(C2CC(F)(F)C2)cn1)[C@@H]1C[C@@H](F)CN1C(=O)Cn1cnc2ccccc21 [Compound 537, (2S,4R)-1-[2-(1H-1,3-benzodiazol-1-yl)acetyl]-N-[(S)-[5-(3,3-difluorocyclobutyl)pyridin-2-yl] (phenyl)methyl]-4-fluoropyrrolidine-2-carboxamide]	11 nM	160 nM	> 100000 nM
O=C(N[C@@H](c1ccccc1)c1ccc(C2CC(F)(F)C2)cn1)[C@@H]1C[C@@H](F)CN1C(=O)CNC(=O)N1CC(F)(F)C1 [Compound 538, (2S,4R)-1-{2-[(3,3-difluoroazetidine-1-carbonyl)amino]acetyl}-N-[(S)-[5-(3,3-difluorocyclobutyl)pyridin-2-yl](phenyl)methyl]-4-fluoropyrrolidine-2-carboxamide]	48 nM	1220 nM	> 100000 nM
O=C(N[C@@H](c1ccccc1)c1ccc(C2CC(F)(F)C2)cn1)[C@@H]1C[C@@H](F)CN1C(=O)Cc1ncco1 [Compound 539, (2S,4R)-N-[(S)-[5-(3,3-difluorocyclobutyl)pyridin-2-yl] (phenyl)methyl]-4-fluoro-1-[2-(1,3-oxazol-2-yl)acetyl] pyrrolidine-2-carboxamide]	68 nM	960 nM	> 100000 nM
Cc1coc(CC(=O)N2C[C@H](F)C[C@H]2C(=O)N[C@@H](c2ccccc2)c2ccc(C3CC(F)(F)C3)cn2)n1 [Compound 540, (2S,4R)-N-[(S)-[5-(3,3-difluorocyclobutyl)pyridin-2-yl] (phenyl)methyl]-4-fluoro-1-[2-(4-methyl-1,3-oxazol-2-yl)acetyl] pyrrolidine-2-carboxamide]	47 nM	590 nM	> 100000 nM
Cc1nn(CC(=O)N2C[C@H](F)C[C@H]2C(=O)N[C@@H](c2ccccc2)c2ccc(C3CC(F)(F)C3)cn2)c(=O)o1 [Compound 541, (2S,4R)-N-[(S)-[5-(3,3-difluorocyclobutyl)pyridin-2-yl](phenyl)methyl]-4-fluoro-1-[2-(5-methyl-2-oxo-2,3-dihydro-1,3,4-oxadiazol-3-yl)acetyl]pyrrolidine-2-carboxamide]	55 nM	650 nM	> 100000 nM
O=C(N[C@@H](c1ccccc1)c1ccc(C2CC(F)(F)C2)cn1)[C@@H]1C[C@@H](F)CN1C(=O)Cc1[nH]nnc1C(F)(F)F [Compound 542, (2S,4R)-N-[(S)-[5-(3,3-difluorocyclobutyl)pyridin-2-yl] (phenyl)methyl]-4-fluoro-1-{2-[4-(trifluoromethyl)-1H-1,2,3-triazol-5-yl]acetyl} pyrrolidine-2-carboxamide]	11 nM	1480 nM	> 100000 nM
O=C(N[C@@H](c1ccccc1)c1ccc(C2CC(F)(F)C2)c(F)c1)[C@@H]1C[C@@H](F)CN1C(=O)CNC(=O)N1CCC1 [Compound 544, (2S,4R)-1-((azetidine-1-carbonyl)glycyl)-N—((S)-(4-(3,3-difluorocyclobutyl)-3-fluorophenyl)(phenyl)methyl)-4-fluoropyrrolidine-2-carboxamide]	11 nM	260 nM	> 100000 nM
